Patent US8431376B2, “Bacterial replication systems and methods” (priority 2004, dated 2013)

How the values were obtained:
Assay type in all cases: biochemical
[1] = target: Y. pestis DNA polymerase III holoenzyme (Yersinia pestis, UniProt Q0WHY6); conditions: read-out: IC50 Y. pestis
[2] = target: S. pyogenes DNA polymerase holoenzyme (PolC, tau-complex, β) (Streptococcus pyogenes, UniProt Q8NZB5); conditions: read-out: IC50 S. pyog.
[3] = target: Y. pestis DNA polymerase III holoenzyme
[4] = target: Pol III holoenzyme; conditions: read-out: low μM activity as Pol III holoenzyme inhibitor

Chain of S. pyogenes DNA polymerase holoenzyme (PolC, tau-complex, β) (Q8NZB5 whole entry): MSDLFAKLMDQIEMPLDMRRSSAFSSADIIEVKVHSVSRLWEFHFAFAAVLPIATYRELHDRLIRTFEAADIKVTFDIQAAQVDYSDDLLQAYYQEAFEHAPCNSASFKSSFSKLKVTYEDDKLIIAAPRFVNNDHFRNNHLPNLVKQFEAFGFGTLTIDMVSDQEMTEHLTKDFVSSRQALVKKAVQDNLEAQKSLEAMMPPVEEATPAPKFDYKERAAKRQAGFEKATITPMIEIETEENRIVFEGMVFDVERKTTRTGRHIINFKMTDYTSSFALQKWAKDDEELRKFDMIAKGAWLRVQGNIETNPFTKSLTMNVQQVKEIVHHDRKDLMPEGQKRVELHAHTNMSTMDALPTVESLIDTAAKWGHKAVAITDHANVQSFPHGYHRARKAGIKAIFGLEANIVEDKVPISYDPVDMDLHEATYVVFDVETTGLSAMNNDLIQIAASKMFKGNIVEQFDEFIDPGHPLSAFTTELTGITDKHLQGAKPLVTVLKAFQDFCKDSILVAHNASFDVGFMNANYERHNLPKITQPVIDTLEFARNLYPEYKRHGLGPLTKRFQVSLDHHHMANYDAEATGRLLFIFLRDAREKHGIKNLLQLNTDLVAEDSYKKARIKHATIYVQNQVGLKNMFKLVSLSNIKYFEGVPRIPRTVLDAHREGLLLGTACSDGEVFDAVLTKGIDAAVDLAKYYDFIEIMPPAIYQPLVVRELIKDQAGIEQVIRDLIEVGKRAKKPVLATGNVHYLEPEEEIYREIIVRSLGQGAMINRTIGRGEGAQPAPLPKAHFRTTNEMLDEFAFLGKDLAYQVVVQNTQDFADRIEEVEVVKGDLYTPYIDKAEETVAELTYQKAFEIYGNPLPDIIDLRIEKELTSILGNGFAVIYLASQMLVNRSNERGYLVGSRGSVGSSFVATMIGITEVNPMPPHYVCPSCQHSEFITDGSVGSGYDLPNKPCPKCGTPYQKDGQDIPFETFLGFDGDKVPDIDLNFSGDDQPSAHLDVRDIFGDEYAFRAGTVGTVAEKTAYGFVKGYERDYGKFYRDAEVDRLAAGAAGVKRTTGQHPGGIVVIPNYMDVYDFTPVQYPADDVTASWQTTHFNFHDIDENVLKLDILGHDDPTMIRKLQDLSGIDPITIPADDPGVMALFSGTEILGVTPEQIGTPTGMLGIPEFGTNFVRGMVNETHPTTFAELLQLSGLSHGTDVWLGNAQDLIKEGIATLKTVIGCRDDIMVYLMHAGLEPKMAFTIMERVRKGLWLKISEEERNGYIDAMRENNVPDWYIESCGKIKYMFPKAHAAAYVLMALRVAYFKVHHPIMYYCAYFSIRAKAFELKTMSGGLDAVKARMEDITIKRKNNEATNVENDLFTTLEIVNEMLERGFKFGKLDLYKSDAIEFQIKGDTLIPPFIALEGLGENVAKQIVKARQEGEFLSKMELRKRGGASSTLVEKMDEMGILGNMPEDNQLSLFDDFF
Chain of S. pyogenes DNA polymerase holoenzyme (PolC, tau-complex, β) (Q7DAL6 1-556 partner): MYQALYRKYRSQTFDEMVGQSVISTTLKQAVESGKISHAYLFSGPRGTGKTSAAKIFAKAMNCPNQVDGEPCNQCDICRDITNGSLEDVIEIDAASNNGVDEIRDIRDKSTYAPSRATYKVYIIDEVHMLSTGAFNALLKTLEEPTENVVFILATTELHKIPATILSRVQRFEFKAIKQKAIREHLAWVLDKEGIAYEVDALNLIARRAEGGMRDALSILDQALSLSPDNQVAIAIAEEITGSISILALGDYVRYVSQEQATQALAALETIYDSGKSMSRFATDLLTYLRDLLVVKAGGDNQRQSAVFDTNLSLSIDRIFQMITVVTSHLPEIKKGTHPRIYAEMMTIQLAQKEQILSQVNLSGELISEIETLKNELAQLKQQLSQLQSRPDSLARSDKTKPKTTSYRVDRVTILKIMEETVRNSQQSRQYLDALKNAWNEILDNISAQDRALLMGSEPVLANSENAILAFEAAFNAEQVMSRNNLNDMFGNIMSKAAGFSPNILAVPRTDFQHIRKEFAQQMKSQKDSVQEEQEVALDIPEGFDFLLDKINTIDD
Chain of S. pyogenes DNA polymerase holoenzyme (PolC, tau-complex, β) (Q7DAL5 1-346 partner): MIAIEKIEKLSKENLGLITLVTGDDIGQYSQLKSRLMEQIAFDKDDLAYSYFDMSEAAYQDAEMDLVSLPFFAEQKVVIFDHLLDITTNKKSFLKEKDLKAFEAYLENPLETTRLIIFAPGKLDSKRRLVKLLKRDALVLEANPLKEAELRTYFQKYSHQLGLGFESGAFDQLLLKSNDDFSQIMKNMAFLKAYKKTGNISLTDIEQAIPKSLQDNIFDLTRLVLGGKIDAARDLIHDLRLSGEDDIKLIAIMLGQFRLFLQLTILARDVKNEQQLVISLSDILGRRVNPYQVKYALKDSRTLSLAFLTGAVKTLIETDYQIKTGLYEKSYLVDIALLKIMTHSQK
Chain of S. pyogenes DNA polymerase holoenzyme (PolC, tau-complex, β) (Q9A209 1-378 partner): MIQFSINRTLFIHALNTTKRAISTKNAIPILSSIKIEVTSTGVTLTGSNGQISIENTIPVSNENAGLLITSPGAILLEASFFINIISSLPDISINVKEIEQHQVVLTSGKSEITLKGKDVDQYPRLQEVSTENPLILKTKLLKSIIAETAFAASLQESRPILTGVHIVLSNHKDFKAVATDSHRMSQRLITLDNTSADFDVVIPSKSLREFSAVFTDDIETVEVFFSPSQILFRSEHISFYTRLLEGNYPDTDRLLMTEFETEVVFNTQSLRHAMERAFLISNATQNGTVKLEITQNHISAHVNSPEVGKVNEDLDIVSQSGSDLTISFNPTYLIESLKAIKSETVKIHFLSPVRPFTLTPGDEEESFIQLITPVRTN

| SMILES | IC50 [1] [µM] | IC50 [2] [µM] | IC50 [3] [µM] | IC50 [4] [µM] |
| --- | --- | --- | --- | --- |
| COc1c(Br)cc(Br)cc1/C=C1\SC(=S)NC1=O | 31.4 | 18.1 | – | – |
| CCOc1c(Br)cc(Br)cc1/C=C1\SC(=S)NC1=O | 22.3 | 13.5 | – | – |
| CC(C)Oc1c(Br)cc(Br)cc1/C=C1\SC(=S)NC1=O | 18.8 | 7.11 | – | – |
| O=C1NC(=S)S/C1=C\c1cc(Br)cc(Br)c1O | > 320 | > 320 | – | – |
| O=C1NC(=S)S/C1=C\c1cc(Br)cc(Br)c1 | 22 | 14.2 | – | – |
| C/N=C1\NC(=O)/C(=C/c2cc(Br)cc(Br)c2OC)S1 | > 320 | > 320 | – | – |
| O=C1NC(=S)S/C1=C\c1cc(Br)ccc1F | 95.9 | 64.5 | – | – |
| O=C1NC(=S)S/C1=C\c1ccc(Br)cc1F | 28.5 | 60 | – | – |
| O=C1NC(=S)S/C1=C\c1cc(F)c(F)cc1F | 203 | 121 | – | – |
| O=C1NC(=S)S/C1=C\c1cccc(Cl)c1F | 123 | 79.9 | – | – |
| COc1cccc(/C=C2\SC(=S)NC2=O)c1F | 54.1 | 277 | – | – |
| COc1cccc(OC)c1/C=C1\SC(=S)NC1=O | 186 | > 320 | – | – |
| Cc1cccc(C)c1/C=C1\SC(=S)NC1=O | 302 | 271 | – | – |
| O=C1NC(=S)S/C1=C\c1c(Cl)cccc1Cl | 162 | 102 | – | – |
| O=C1NC(=S)S/C1=C\c1cc([N+](=O)[O-])ccc1Sc1ccc(Cl)cc1 | 4.62 | 3.53 | – | – |
| CC(C)(C)c1ccc(Oc2ccc([N+](=O)[O-])cc2/C=C2\SC(=S)NC2=O)cc1 | 7.03 | 4.38 | – | – |
| O=C1NC(=S)S/C1=C\c1cc([N+](=O)[O-])ccc1OC(F)F | 52.9 | 96 | – | – |
| O=C1NC(=S)S/C1=C\c1cc([N+](=O)[O-])ccc1SC1CCCCC1 | 9.94 | 8.73 | – | – |
| COc1ccc([N+](=O)[O-])cc1/C=C1\SC(=S)NC1=O | 126 | 89 | – | – |
| COc1ccc(/C=C2\SC(=S)NC2=O)cc1[N+](=O)[O-] | 48.9 | > 320 | – | – |
| O=C1NC(=S)S/C1=C\c1ccc(N2CCOCC2)c([N+](=O)[O-])c1 | > 320 | > 320 | – | – |
| O=C1NC(=S)S/C1=C\c1ccc(Cl)cc1[N+](=O)[O-] | 63.9 | 133 | – | – |
| O=C1NC(=S)S/C1=C\c1cc(Cl)ccc1[N+](=O)[O-] | 267 | 163 | – | – |
| COc1cccc(F)c1/C=C1\SC(=S)NC1=O | – | > 320 | 195 | – |

| SMILES | IC50 [1] [µM] | IC50 [2] [µM] | IC50 [3] [µM] | IC50 [4] [µM] |
| --- | --- | --- | --- | --- |
| COc1ccc(F)c(/C=C2\SC(=S)NC2=O)c1 | 179 | 193 | – | – |
| O=C1NC(=S)S/C1=C\c1ccc(F)c(F)c1 | 241 | 181 | – | – |
| O=C1NC(=S)S/C1=C\c1cc(F)ccc1F | – | 211 | – | – |
| O=C1NC(=S)S/C1=C\c1c(F)cccc1F | 196 | > 320 | – | – |
| O=C1NC(=S)S/C1=C\c1cccc(F)c1F | 212 | 214 | – | – |
| O=C1NC(=S)S/C1=C\c1ccc(F)cc1F | 315 | 288 | – | – |
| O=C1NC(=S)S/C1=C\c1cc(C(F)(F)F)ccc1F | 108 | 45.1 | – | – |
| O=C1NC(=S)S/C1=C\c1cccc(C(F)(F)F)c1F | 166 | 67.9 | – | – |
| COc1cc(F)c(/C=C2\SC(=S)NC2=O)cc1OC | > 320 | > 320 | – | – |
| C/N=C1\NC(=O)/C(=C/c2ccc(Cl)c(Cl)c2)S1 | 286 | 112 | – | – |
| N=C1NC(=O)/C(=C/c2ccc(Cl)c(Cl)c2)S1 | 116 | 145 | – | – |
| O=C1NC(=S)S/C1=C\c1cc([N+](=O)[O-])ccc1N1CCCCC1 | 41.2 | 23.7 | – | – |
| O=C1NC(=S)S/C1=C\c1cc([N+](=O)[O-])ccc1N1CCOCC1 | 108 | 192 | – | – |
| O=C1NC(=S)S/C1=C\c1cc([N+](=O)[O-])ccc1F | 101 | 89.7 | – | – |
| O=C1NC(=S)S/C1=C\c1cc([N+](=O)[O-])ccc1Cl | 88.9 | 81.6 | – | – |
| O=C1NC(=S)S/C1=C\c1ccc(Cl)c([N+](=O)[O-])c1 | 27.2 | 24.2 | – | – |
| O=C1NC(=S)S/C1=C\c1cc2c(cc1[N+](=O)[O-])OCO2 | 144 | 98.3 | – | – |
| COc1cc(/C=C2\SC(=S)NC2=O)c([N+](=O)[O-])cc1OC | > 320 | > 320 | – | – |
| CN(C)c1ccc(/C=C2\SC(=S)NC2=O)c([NH+]([O-])O)c1 (stereo not shown) | 22.6 | 44.4 | – | – |
| O=C1NC(=S)S/C1=C\c1ccc([N+](=O)[O-])c(O)c1 | 162 | – | – | – |
| O=C1NC(=S)SC1=Cc1cc([N+](=O)[O-])ccc1Sc1ccc(Cl)cc1 [5-[2-(4-Chloro-phenylsulfanyl)-5-nitro-benzylidene]-2-thioxo-thiazolidin-4-one] | – | – | – | 3 to 7 |
| O=C1NC(=S)S/C1=C\c1ccc(Cl)c(Cl)c1 [drawing 34] | 61.6 | 37.2 | – | – |
| O=C1NC(=S)S/C1=C\c1ccc(Cl)c(Cl)c1 [drawing 37] | > 320 | > 320 | – | – |
